Source: patent US20240317760A1, “TRK KINASE INHIBITOR COMPOUND AND USE THEREOF” (HENAN MEDINNO PHARMACEUTICAL TECHNOLOGY CO., LTD., priority 2021, published 2024)

Legend:
Type in all cases: biochemical
TRKA = target: T1, TRKA (Homo sapiens, UniProt P04629); assay: Determination of inhibitory activity against TRKA kinase (ADP-Glo Kinase Assay); conditions: ATP 5 μM, Poly (4:1 Glu, Tyr) Peptide 0.03 mg/ml
T1 construct: purchased Carna 08-186
Protocol: (§1) Assay: Determination of Inhibitory Activity Against TRKA/B/C Kinases
(§2) 1× volume of 5× kinase reaction buffer and 4× volume of water; 5 mM MgCl2; and 1 mM DTT.
(§3) • 1). Gradiently diluting a compound 4-fold in a dilution plate with DMSO, with a starting compound concentration of 1000 nM. • 2). Diluting the compound 50-fold into 1× kinase reaction buffer and shaking it on a shaker for 20 minutes. • 3). Formulating 2× kinase with 1× of enzyme reaction buffer. • 4). Adding 2 μl kinase (formulated in step 3) to each well of the reaction plate. • 5). Adding 1 μl of the compound diluted in buffer to each well, sealing the plate with a sealing membrane and centrifuging the plate at 1000 g for 30 seconds and leaving it at room temperature for 10 minutes. • 6). Formulating 4×ATP & sub mixture with 1× enzyme reaction buffer and adding 1 μl of 4×ATP & sub mixture to the reaction plate. • 7). Sealing the plate with a sealing membrane and centrifuging the plate at 1000 g for 30 seconds and allowing it to react at room temperature for 60 minutes. • 8). Transferring 4 μl of ADP-Glo to 384 reaction plate and centrifuging the plate at 1000 rpm/min for 1 min, and then incubating it at 25° C. for 40 min. • 9). Transferring 8 μl of Detection solution to 384 reaction plate and centrifuging the plate at 1000 rpm/min for 1 min and incubating it at 25° C. for 40 min. • 10) Reading the RLU (Relative luminescence unit) signal using a Biotek multifunctional plate reader. The signal intensity was used to characterize the activity degree of kinase.
(§4) The IC50 (half inhibition concentration) of a compound was obtained using the following non-linear fitting equation, wherein data analysis was performed using Graphpad 6.0 software.
(§5) Y=Bottom+(Top−Bottom)/(1+10^((Log IC50−X)*Hill Slope)) • X: log value of compound concentration; and Y: inhibition rate (% inhibition)
(§6) Data were exported from Biotek and analyzed manually. The ratios were converted to inhibition rates and IC50 was calculated by Prism GraphPad 6.0 from the inhibition rates. IC50 was calculated again by the ratios to verify accuracy of the results.

TRKB = target: T2, TRKB (Homo sapiens, UniProt Q16620); assay: Determination of inhibitory activity against TRKB kinase (ADP-Glo Kinase Assay); conditions: ATP 20 μM, Poly (4:1 Glu, Tyr) Peptide 0.03 mg/ml
T2 construct: purchased SignalChem N17-11G
T2 sequence (Q16620 32-822): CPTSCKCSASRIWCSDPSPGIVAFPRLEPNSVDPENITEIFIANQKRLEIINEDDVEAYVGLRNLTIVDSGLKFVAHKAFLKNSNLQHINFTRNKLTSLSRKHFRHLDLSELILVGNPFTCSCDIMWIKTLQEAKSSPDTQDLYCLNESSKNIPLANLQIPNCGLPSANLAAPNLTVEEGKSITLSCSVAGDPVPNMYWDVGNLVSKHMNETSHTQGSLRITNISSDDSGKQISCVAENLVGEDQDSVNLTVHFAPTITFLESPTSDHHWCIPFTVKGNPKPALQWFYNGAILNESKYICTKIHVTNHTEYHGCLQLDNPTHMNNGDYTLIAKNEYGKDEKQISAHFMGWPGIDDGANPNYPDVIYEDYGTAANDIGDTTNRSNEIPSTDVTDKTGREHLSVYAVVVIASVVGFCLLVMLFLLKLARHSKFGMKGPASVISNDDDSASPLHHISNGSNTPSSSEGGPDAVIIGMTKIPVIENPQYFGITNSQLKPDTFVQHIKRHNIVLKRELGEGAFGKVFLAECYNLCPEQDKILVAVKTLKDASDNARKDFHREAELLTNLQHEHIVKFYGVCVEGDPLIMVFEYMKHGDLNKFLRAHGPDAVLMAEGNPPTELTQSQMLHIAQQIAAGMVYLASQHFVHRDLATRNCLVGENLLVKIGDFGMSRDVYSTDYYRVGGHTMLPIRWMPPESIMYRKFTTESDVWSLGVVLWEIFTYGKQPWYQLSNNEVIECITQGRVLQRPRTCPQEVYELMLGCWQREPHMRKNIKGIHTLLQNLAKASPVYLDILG
Protocol: as §1, §2, §3, §4, §5, §6

TRKC = target: T3, TRKC (Homo sapiens, UniProt Q16288); assay: Determination of inhibitory activity against TRKC kinase (ADP-Glo Kinase Assay); conditions: ATP 5 μM, Poly (4:1 Glu, Tyr) Peptide 0.03 mg/ml
T3 construct: purchased Carna 08-196
T3 sequence (Q16288 32-839): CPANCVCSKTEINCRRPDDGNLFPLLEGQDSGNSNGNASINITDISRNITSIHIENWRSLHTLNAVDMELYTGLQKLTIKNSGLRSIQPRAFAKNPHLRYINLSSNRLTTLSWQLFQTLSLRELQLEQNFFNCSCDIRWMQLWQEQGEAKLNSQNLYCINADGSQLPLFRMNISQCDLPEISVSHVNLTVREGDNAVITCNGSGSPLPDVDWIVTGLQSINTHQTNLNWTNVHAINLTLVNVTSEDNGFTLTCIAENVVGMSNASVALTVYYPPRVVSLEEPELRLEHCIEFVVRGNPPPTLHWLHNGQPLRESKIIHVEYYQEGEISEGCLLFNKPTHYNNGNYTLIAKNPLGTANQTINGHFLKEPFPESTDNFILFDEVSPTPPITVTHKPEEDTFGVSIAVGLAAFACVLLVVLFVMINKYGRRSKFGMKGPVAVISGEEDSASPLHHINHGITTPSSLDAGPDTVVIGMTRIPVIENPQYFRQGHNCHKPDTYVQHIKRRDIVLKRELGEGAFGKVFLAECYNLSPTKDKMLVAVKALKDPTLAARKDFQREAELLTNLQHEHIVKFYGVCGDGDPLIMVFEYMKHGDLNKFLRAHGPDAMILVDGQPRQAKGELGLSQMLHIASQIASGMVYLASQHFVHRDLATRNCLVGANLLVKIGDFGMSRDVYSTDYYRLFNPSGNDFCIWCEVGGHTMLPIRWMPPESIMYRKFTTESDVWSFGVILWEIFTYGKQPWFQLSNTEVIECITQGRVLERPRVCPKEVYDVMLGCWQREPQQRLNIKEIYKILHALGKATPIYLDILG
Protocol: as §1, §2, §3, §4, §5, §6

T1 sequence (P04629 33-796): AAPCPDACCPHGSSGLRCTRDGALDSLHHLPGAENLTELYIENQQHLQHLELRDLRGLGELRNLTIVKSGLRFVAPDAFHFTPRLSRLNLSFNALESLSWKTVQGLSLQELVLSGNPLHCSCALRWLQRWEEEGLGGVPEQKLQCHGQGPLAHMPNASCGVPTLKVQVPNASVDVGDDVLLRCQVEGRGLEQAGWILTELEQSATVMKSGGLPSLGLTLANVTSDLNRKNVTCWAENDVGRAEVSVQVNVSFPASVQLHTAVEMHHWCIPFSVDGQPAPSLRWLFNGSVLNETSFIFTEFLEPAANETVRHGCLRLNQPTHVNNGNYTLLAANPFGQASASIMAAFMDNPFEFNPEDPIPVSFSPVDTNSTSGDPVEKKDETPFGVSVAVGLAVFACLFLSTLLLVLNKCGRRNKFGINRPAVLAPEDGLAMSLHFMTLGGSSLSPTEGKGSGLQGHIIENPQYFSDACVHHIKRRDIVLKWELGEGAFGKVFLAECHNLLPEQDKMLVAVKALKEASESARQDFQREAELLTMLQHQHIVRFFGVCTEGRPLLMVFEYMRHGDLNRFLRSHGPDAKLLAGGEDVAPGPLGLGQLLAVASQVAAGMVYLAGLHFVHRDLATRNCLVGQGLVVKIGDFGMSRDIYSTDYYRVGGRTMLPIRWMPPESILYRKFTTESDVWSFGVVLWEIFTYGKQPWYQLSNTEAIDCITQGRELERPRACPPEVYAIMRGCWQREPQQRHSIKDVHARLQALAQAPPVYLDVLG

SMILES	IC50 (TRKA) [nM]	IC50 (TRKB) [nM]	IC50 (TRKC) [nM]
CC(Oc1ccc2[nH]nc(-c3nc4c([nH]3)CN(CC3CCCNC3)C4)c2c1)c1cc(F)cc(F)c1 (stereo not drawn) [Example 24, 5-(1-(3,5-Difluorophenyl)ethoxy)-3-(5-(piperidin-3-ylmethyl)-1,4,5,6-tetrahydropyrrolo[3,4-d]imidazol-2-yl)-1H-indazole]	1.5	5.3	2.2
CC(Oc1ccc2[nH]nc(-c3nc4c([nH]3)CN(CC3CCCCN3)C4)c2c1)c1cc(F)cc(F)c1 (stereo not drawn) [Example 25, 5-(1-(3,5-Difluorophenyl)ethoxy)-3-(5-(piperidin-2-ylmethyl)-1,4,5,6-tetrahydropyrrolo[3,4-d]imidazol-2-yl)-1H-indazole]	1.8	6.8	1.6
CC(Oc1ccc2[nH]nc(-c3nc4c([nH]3)CN(CC3CN(C)C3)C4)c2c1)c1cc(F)cc(F)c1 (stereo not drawn) [Example 26, 5-(1-(3,5-Difluorophenyl)ethoxy)-3-(5-((1-methylazetidin-3-yl)methyl)-1,4,5,6-tetrahydropyrrolo[3,4-d]imidazol-2-yl)-1H-indazole]	2.8	5.5	2
CC(Oc1ccc2[nH]nc(-c3nc4c([nH]3)CN(CC3CCN(C5CCC5)CC3)C4)c2c1)c1cc(F)cc(F)c1 (stereo not drawn) [Example 27, 3-(5-((1-Cyclobutylpiperidin-4-yl)methyl)-1,4,5,6-tetrahydropyrrolo[3,4-d]imidazol-2-yl)-5-(1-(3,5-difluorophenyl)ethoxy)-1H-indazole]	0.42	3.1	3.5
CC(Oc1ccc2[nH]nc(-c3nc4c([nH]3)CN(CC3(C)CCN(C(C)C)CC3)C4)c2c1)c1cc(F)cc(F)c1 (stereo not drawn) [Example 28]	0.53	3.9	1.4
CC(Oc1ccc2[nH]nc(-c3nc4c([nH]3)CN(C(=O)N3CCN(C)CC3)C4)c2c1)c1cc(F)cc(F)c1 (stereo not drawn) [Example 29, (2-(5-(1-(3,5-Difluorophenyl)ethoxy)-1H-indazol-3-yl)-4,6-dihydropyrrolo[3,4-d]imidazol-5(1H)-yl)(4-methylpiperazin-1-yl)ketone]	1.5	2.2	1.8
CC(Oc1ccc2[nH]nc(-c3nc4c([nH]3)CN(C(=O)OC3CCN(C)C3)C4)c2c1)c1cc(F)cc(F)c1 (stereo not drawn) [Example 30, 1-Methylpyrrolidin-3-yl 2-(5-(1-(3,5-difluorophenyl)ethoxy)-1H-indazol-3-yl)-4,6-dihydropyrrolo[3,4-d]imidazole-5(1H)-carboxylate]	0.94	2	1.2
CC(Oc1ccc2[nH]nc(-c3nc4c([nH]3)CN(C(=O)OC3CN(C)C3)C4)c2c1)c1cc(F)cc(F)c1 (stereo not drawn) [Example 31, 1-Methylazetidin-3-yl 2-(5-(1-(3,5-difluorophenyl)ethoxy)-1H-indazol-3-yl)-4,6-dihydropyrrolo[3,4-d]imidazole-5(1H)-carboxylate]	1.1	4.3	1.1
C[C@@H](Oc1ccc2[nH]nc(-c3nc4c([nH]3)CN(CC3CCN(C)CC3)C4)c2c1)c1cc(F)cc(F)c1 [Example 32]	0.23	0.63	0.43
CC(Oc1ccc2[nH]nc(-c3nc4c([nH]3)CN(C(=O)OC3CCCN(C)C3)C4)c2c1)c1cc(F)cc(F)c1 (stereo not drawn) [Example 33, 1-Methylpiperidin-3-yl 2-(5-(1-(3,5-difluorophenyl)ethoxy)-1H-indazol-3-yl)-4,6-dihydropyrrolo[3,4-d]imidazole-5(1H)-carboxylate]	0.46	4.1	1.2
CC(Oc1ccc2[nH]nc(-c3nc4c([nH]3)CN(C(C)C3CN(C)C3)C4)c2c1)c1cc(F)cc(F)c1 (stereo not drawn) [Example 34, 5-(1-(3,5-Difluorophenyl)ethoxy)-3-(5-(1-(1-methylazetidin-3-yl)ethyl)-1,4,5,6-tetrahydropyrrolo[3,4-d]imidazol-2-yl)-1H-indazole]	4.6	2	4.5
CCN1CCC(N2Cc3nc(-c4n[nH]c5ccc(OC(C)c6cc(F)cc(F)c6)cc45)[nH]c3C2)CC1 (stereo not drawn) [Example 38, 5-(1-(3,5-Difluorophenyl)ethoxy)-3-(5-(1-ethylpiperidin-4-yl)-1,4,5,6-tetrahydropyrrolo[3,4-d]imidazol-2-yl)-1H indazole]	4.1	1.9	3.6
CC(Oc1ccc2[nH]nc(-c3nc4c([nH]3)CN(C3CC5(C3)CN(C)C5)C4)c2c1)c1cc(F)cc(F)c1 (stereo not drawn) [Example 39, 5-(1-(3,5-Difluorophenyl)ethoxy)-3-(5-(2-methyl-2-azaspiro[3.3]heptan-6-yl)-1,4,5,6-tetrahydropyrrolo[3,4-d]imidazol-2-yl)-1H-indazole]	6.8	1	2.3
CC(Oc1ccc2[nH]nc(-c3nc4c([nH]3)CN(C3CCN(C)C3)C4)c2c1)c1cc(F)cc(F)c1 (stereo not drawn) [Example 41, 5-(1-(3,5-Difluorophenyl)ethoxy)-3-(5-(1-methylpyrrolidin-3-yl)-1,4,5,6-tetrahydropyrrolo[3,4-d]imidazol-2-yl)-1H indazole]	7.4	3	7.7
CC(Oc1ccc2[nH]nc(-c3nc4c([nH]3)CN(CC3CCCN3)C4)c2c1)c1cc(F)cc(F)c1 (stereo not drawn) [Example 42, 5-(1-(3,5-Difluorophenyl)ethoxy)-3-(5-(pyrrolidin-2-ylmethyl)-1,4,5,6-tetrahydropyrrolo[3,4-d]imidazol-2-yl)-1H-indazole]	1	1.1	1.5
CCN1CCCC(N2Cc3nc(-c4n[nH]c5ccc(OC(C)c6cc(F)cc(F)c6)cc45)[nH]c3C2)C1 (stereo not drawn) [Example 43, 5-(1-(3,5-Difluorophenyl)ethoxy)-3-(5-(1-ethylpiperidin-3-yl)-1,4,5,6-tetrahydropyrrolo[3,4-d]imidazol-2-yl)-1H indazole]	1.9	1.4	2.9
CC(Oc1ccc2[nH]nc(-c3nc4c([nH]3)CN(C3CC(N(C)C)C3)C4)c2c1)c1cc(F)cc(F)c1 (stereo not drawn) [Example 44]	1.4	0.64	1.8
CC(Oc1ccc2[nH]nc(-c3nc4c([nH]3)CN(C3CCCC(N(C)C)C3)C4)c2c1)c1cc(F)cc(F)c1 (stereo not drawn) [Example 45, 3-(2-(5-(1-(3,5-difluorophenyl)ethoxy)-1H-indazol-3-yl)-4,6-dihydropyrrolo[3,4-d]imidazol-5(1H)-yl)-N,N-dimethyl cyclohexan-1-amine]	1.6	0.83	1.7
CC(Oc1ccc2[nH]nc(-c3nc4c([nH]3)CN(C3CCC(N(C)C)C3)C4)c2c1)c1cc(F)cc(F)c1 (stereo not drawn) [Example 46, 3-(2-(5-(1-(3,5-Difluorophenyl)ethoxy)-1H-indazol-3-yl)-4,6-dihydropyrrolo[3,4-d]imidazol-5(1H)-yl)-N,N-dimethyl cyclopentan-1-amine]	10.6	1.4	2.9
CC(Oc1ccc2[nH]nc(-c3nc4c([nH]3)CN(CC3CCN(C)CC3)C4)c2c1)c1cc(F)cc(C#N)c1 (stereo not drawn) [Example 47]	14.2	8.9	8.6
CCC(Oc1ccc2[nH]nc(-c3nc4c([nH]3)CN(CC3CCN(C)CC3)C4)c2c1)c1cc(F)cc(F)c1 (stereo not drawn) [Example 48, 5-(1-(3,5-Difluorophenyl)propoxy)-3-(5-((1-methylpiperidin-4-yl)methyl)-1,4,5,6-tetrahydropyrrolo[3,4-d]imidazol-2-yl)-1 H-indazole]	4.5	4.2	6.1
